How the values were obtained:
Format in all cases: cell-based
CD19-positive cells = experiment: B cell depletion from human whole blood (HWB), flow cytometry, CD19; details: 1 μM, 24 hrs
Procedure: (§1) A flow cytometry assay was used to compare the ability of S-isomer of compound of formula A, Ublituximab (Ubx), and combinations thereof to deplete B cells from human whole blood (HWB). In this assay, 50 μl of HWB sample was treated with either S-isomer of a compound of formula A (1000 nM), UBX (100 μg/ml to 0.1 μg/ml), or UBX in combination with S-isomer of a compound of formula A at 1000 nM and incubated for 24 hrs at 37° C. and 5% CO2. 20 μl of treated sample was taken in a 1.5 ml centrifuge tube and labeled with CD45 FITC and CD19 PE or CD20 FITC antibody and incubated in the dark for 1 hour at RT. 1 ml of red blood cell (RBC) lysing solution was added, and tubes were centrifuged at 3000 rpm for 10 minutes. […] The tubes were vortexed, and 5000 events were acquired on a Guava® easyCyte™ flow cytometer and analyzed with Incyte Software.
(§2) Gated population of CD45-positive cells were further analyzed for CD19. The number of cells that were positive for CD45 and CD19 was calculated, and the data was expressed as the percentage of CD19 positive cells in the population. CD20-positive populations were gated with fluorescence positive minus unlabeled cells, and the data was expressed as the percentage of CD20-positive cells in the population. The loss of CD19/CD20 population from control was calculated and expressed as % depletion with respect to control.

CD20-positive cells = experiment: B cell depletion from human whole blood (HWB), flow cytometry, CD20; details: 1 μM, 24 hrs
Procedure: as §1, §2

DB Cells = experiment: cell cycle assay, flow cytometry; details: DB cells
Procedure: (§3) A cell cycle assay reagent (Millipore) was used to determine the effect of S-isomer of a compound of formula A, UBX, and combinations thereof on the cell cycle in cancerous cells. […] The cells were transferred to microfuge tubes to receive 50 μl of cell cycle reagent and incubated for 30 minutes at RT away from light. Cells were then diluted with 300-400 μl PBS, and a minimum of 10,000 events were acquired on a Guava® easyCyte™ flow cytometer. The data was analyzed with Express Pro software and the percentage of the cell population in different cell cycle stages with respect to control was presented in histograms.

U266B1 cells = experiment: cell cycle assay, flow cytometry
Procedure: as §3

Daudi cells = experiment: cell cycle assay, flow cytometry
Procedure: as §3

Raji Cells = experiment: cell cycle assay, flow cytometry
Procedure: as §3

Compound: CC(C)Oc1ccc(-c2nn([C@@H](C)c3oc4ccc(F)cc4c(=O)c3-c3cccc(F)c3)c3ncnc(N)c23)cc1F [S-isomer, (S)-2-(1-(4-amino-3-(3-fluoro-4-isopropoxyphenyl)-1H-pyrazolo[3,4-d]pyrimidin-1-yl)ethyl)-6-fluoro-3-(3-fluorophenyl)-4H-chromen-4-one]
- reduction in CD19-positive HWB B-cells (CD19-positive cells): not observed
- reduction in CD20-positive HWB B-cells (CD20-positive cells): not observed
- G0/G1, percentage of the cell population (DB Cells; 72 h, 0.1 nM): 54.37
- G2/M, percentage of the cell population (DB Cells; 72 h, 0.1 nM): 39.41
- S, percentage of the cell population (DB Cells; 72 h, 0.1 nM): 4.84
- Sub G0, percentage of the cell population (DB Cells; 72 h, 0.1 nM): 0.84
- G0/G1, percentage of the cell population (DB Cells; 72 h, 1 nM): 50.61
- G2/M, percentage of the cell population (DB Cells; 72 h, 1 nM): 41.44
- S, percentage of the cell population (DB Cells; 72 h, 1 nM): 6.53
- Sub G0, percentage of the cell population (DB Cells; 72 h, 1 nM): 0.54
- G0/G1, percentage of the cell population (DB Cells; 72 h, 10 nM): 47.22
- G2/M, percentage of the cell population (DB Cells; 72 h, 10 nM): 46.85
- S, percentage of the cell population (DB Cells; 72 h, 10 nM): 4.98
- Sub G0, percentage of the cell population (DB Cells; 72 h, 10 nM): 0.55
- G0/G1, percentage of the cell population (DB Cells; 72 h, 100 nM): 41.21
- G2/M, percentage of the cell population (DB Cells; 72 h, 100 nM): 50.22
- S, percentage of the cell population (DB Cells; 72 h, 100 nM): 6.96
- Sub G0, percentage of the cell population (DB Cells; 72 h, 100 nM): 0.43
- G0/G1, percentage of the cell population (DB Cells; 72 h, 1000 nM): 0.75
- G2/M, percentage of the cell population (DB Cells; 72 h, 1000 nM): 92.79
- S, percentage of the cell population (DB Cells; 72 h, 1000 nM): 0.42
- Sub G0, percentage of the cell population (DB Cells; 72 h, 1000 nM): 5.36
- G0/G1, percentage of the cell population (DB Cells; 72 h, 10,000 nM): 1.40
- G2/M, percentage of the cell population (DB Cells; 72 h, 10,000 nM): 94.87
- S, percentage of the cell population (DB Cells; 72 h, 10,000 nM): 0.89
- Sub G0, percentage of the cell population (DB Cells; 72 h, 10,000 nM): 2.06
- G0/G1, percentage of the cell population (U266B1 cells; 72 h, 0.1 nM): 59.26
- G2/M, percentage of the cell population (U266B1 cells; 72 h, 0.1 nM): 30.71
- S, percentage of the cell population (U266B1 cells; 72 h, 0.1 nM): 6.55
- Sub G0, percentage of the cell population (U266B1 cells; 72 h, 0.1 nM): 2.75
- G0/G1, percentage of the cell population (U266B1 cells; 72 h, 1 nM): 57.73
- G2/M, percentage of the cell population (U266B1 cells; 72 h, 1 nM): 36.19
- S, percentage of the cell population (U266B1 cells; 72 h, 1 nM): 4.87
- Sub G0, percentage of the cell population (U266B1 cells; 72 h, 1 nM): 0.94
- G0/G1, percentage of the cell population (U266B1 cells; 72 h, 10 nM): 55.33
- G2/M, percentage of the cell population (U266B1 cells; 72 h, 10 nM): 39.28
- S, percentage of the cell population (U266B1 cells; 72 h, 10 nM): 5.38
- Sub G0, percentage of the cell population (U266B1 cells; 72 h, 10 nM): 0.76
- G0/G1, percentage of the cell population (U266B1 cells; 72 h, 100 nM): 48.69
- G2/M, percentage of the cell population (U266B1 cells; 72 h, 100 nM): 45.76
- S, percentage of the cell population (U266B1 cells; 72 h, 100 nM): 5.49
- Sub G0, percentage of the cell population (U266B1 cells; 72 h, 100 nM): 0.75
- G0/G1, percentage of the cell population (U266B1 cells; 72 h, 1000 nM): 47.80
- G2/M, percentage of the cell population (U266B1 cells; 72 h, 1000 nM): 47.13
- S, percentage of the cell population (U266B1 cells; 72 h, 1000 nM): 4.69
- Sub G0, percentage of the cell population (U266B1 cells; 72 h, 1000 nM): 0.88
- G0/G1, percentage of the cell population (U266B1 cells; 72 h, 10,000 nM): 2.00
- G2/M, percentage of the cell population (U266B1 cells; 72 h, 10,000 nM): 64.31
- S, percentage of the cell population (U266B1 cells; 72 h, 10,000 nM): 0.94
- Sub G0, percentage of the cell population (U266B1 cells; 72 h, 10,000 nM): 28.88
- G0/G1, percentage of the cell population (Daudi cells; 72 h, 0.1 nM): 49.56
- G2/M, percentage of the cell population (Daudi cells; 72 h, 0.1 nM): 33.23
- S, percentage of the cell population (Daudi cells; 72 h, 0.1 nM): 14.13
- Sub G0, percentage of the cell population (Daudi cells; 72 h, 0.1 nM): 0.34
- G0/G1, percentage of the cell population (Daudi cells; 72 h, 1 nM): 48.11
- G2/M, percentage of the cell population (Daudi cells; 72 h, 1 nM): 36.75
- S, percentage of the cell population (Daudi cells; 72 h, 1 nM): 13.27
- Sub G0, percentage of the cell population (Daudi cells; 72 h, 1 nM): 0.74
- G0/G1, percentage of the cell population (Daudi cells; 72 h, 10 nM): 46.84
- G2/M, percentage of the cell population (Daudi cells; 72 h, 10 nM): 37.79
- S, percentage of the cell population (Daudi cells; 72 h, 10 nM): 12.55
- Sub G0, percentage of the cell population (Daudi cells; 72 h, 10 nM): 1.68
- G0/G1, percentage of the cell population (Daudi cells; 72 h, 100 nM): 47.39
- G2/M, percentage of the cell population (Daudi cells; 72 h, 100 nM): 38.05
- S, percentage of the cell population (Daudi cells; 72 h, 100 nM): 11.33
- Sub G0, percentage of the cell population (Daudi cells; 72 h, 100 nM): 1.30
- G0/G1, percentage of the cell population (Daudi cells; 72 h, 1000 nM): 48.27
- G2/M, percentage of the cell population (Daudi cells; 72 h, 1000 nM): 40.10
- S, percentage of the cell population (Daudi cells; 72 h, 1000 nM): 7.91
- Sub G0, percentage of the cell population (Daudi cells; 72 h, 1000 nM): 2.22
- G0/G1, percentage of the cell population (Daudi cells; 72 h, 10,000 nM): 2.53
- G2/M, percentage of the cell population (Daudi cells; 72 h, 10,000 nM): 65.03
- S, percentage of the cell population (Daudi cells; 72 h, 10,000 nM): 21.92
- Sub G0, percentage of the cell population (Daudi cells; 72 h, 10,000 nM): 5.01
- G0/G1, percentage of the cell population (Raji Cells; 72 h, 0.1 nM): 56.54
- G2/M, percentage of the cell population (Raji Cells; 72 h, 0.1 nM): 33.63
- S, percentage of the cell population (Raji Cells; 72 h, 0.1 nM): 8.38
- Sub G0, percentage of the cell population (Raji Cells; 72 h, 0.1 nM): 1.32
- G0/G1, percentage of the cell population (Raji Cells; 72 h, 1 nM): 56.93
- G2/M, percentage of the cell population (Raji Cells; 72 h, 1 nM): 34.13
- S, percentage of the cell population (Raji Cells; 72 h, 1 nM): 5.51
- Sub G0, percentage of the cell population (Raji Cells; 72 h, 1 nM): 1.89
- G0/G1, percentage of the cell population (Raji Cells; 72 h, 10 nM): 55.96
- G2/M, percentage of the cell population (Raji Cells; 72 h, 10 nM): 34.81
- S, percentage of the cell population (Raji Cells; 72 h, 10 nM): 5.80
- Sub G0, percentage of the cell population (Raji Cells; 72 h, 10 nM): 1.06
- G0/G1, percentage of the cell population (Raji Cells; 72 h, 100 nM): 52.81
- G2/M, percentage of the cell population (Raji Cells; 72 h, 100 nM): 37.80
- S, percentage of the cell population (Raji Cells; 72 h, 100 nM): 6.72
- Sub G0, percentage of the cell population (Raji Cells; 72 h, 100 nM): 1.04
- G0/G1, percentage of the cell population (Raji Cells; 72 h, 1000 nM): 52.04
- G2/M, percentage of the cell population (Raji Cells; 72 h, 1000 nM): 41.21
- S, percentage of the cell population (Raji Cells; 72 h, 1000 nM): 3.92
- Sub G0, percentage of the cell population (Raji Cells; 72 h, 1000 nM): 1.29
- G0/G1, percentage of the cell population (Raji Cells; 72 h, 10,000 nM): 10.12
- G2/M, percentage of the cell population (Raji Cells; 72 h, 10,000 nM): 58.09
- S, percentage of the cell population (Raji Cells; 72 h, 10,000 nM): 23.17
- Sub G0, percentage of the cell population (Raji Cells; 72 h, 10,000 nM): 4.90
